# Reference: paper PMC4839570, “Novel Anthra[1,2-c][1,2,5]Thiadiazole-6,11-Diones as Promising Anticancer Lead Compounds: Biological Evaluation, Characterization & Molecular Targets Determination” (PLoS ONE, 2016)
# Legend:
# [1] = system: normal cardiac myoblast H9c2 cells
# Method: Briefly, 96 well microtiter plates were inoculated with the specified human cancer cell lines in RPMI 1640 medium containing 5% fetal bovine serum and 2 mM L-glutamine at the specified plating densities. The microtiter plates were incubated at 37°C, 5% CO2, and 100% relative humidity for 24 h. The test compounds were solubilized in DMSO at 400-fold the desired final maximum test concentration, diluted with complete medium containing gentamicin and added to the wells of the microtiter plates to achieve the final desired compound concentration, then incubated for an additional 48 h at the same incubation conditions. The media were removed, the cells were fixed then stained with sulforhodamine B and the unbound dye was removed by washing with acetic acid. The bound dye was resolubilized with trizma base and the absorbance at 515 nm was measured. Cells were stained with the WST-1 cell proliferation reagent instead of sulforhodamine B in some experiments and absorbance were measured at 440 nm. The three dose response parameters GI50, TGI and LC50 were calculated for each experimental compound as follows [48]: For values where Ti ≥ Tz the formula is [ (Ti-Tz) / (C-Tz)] x 100 For values where Ti < Tz the formula is [ (Ti-Tz) / Tz] x 100 Where Ti is the absorbance of the solubilized Sulforhodamine B (SRB) (representing the number of cells) of the five different concentrations of the compound used in the test, Tz is the absorbance of the SRB at time zero, and C is the absorbance of the SRB of the control growth.
# [2] = system: MGH-U1R cell line; set-up: method as in PMID 25431950; conditions: cited from earlier work
# [3] = system: Mycobacterium tuberculosis H37Rv; test: Antimycobacterial susceptibility, BACTEC MGIT 960 SIRE; assay type: cell-based
compound,measurement,setting,value
"COc1cccc2c1C(=O)c1c(O)c3c(c(O)c1C2=O)C[C@@](O)(C(=O)CO)C[C@@H]3O[C@H]1C[C@H](N)[C@H](O)[C@H](C)O1 [Doxorubicin, doxorubicin, reference compound]",cytotoxicity towards normal cardiac myoblast H9c2 cells,[1],potent dose dependent cytotoxic effect
same,resistance of MGH-U1R cell line,[2],40 fold
"CC[C@@H](CO)NCCN[C@@H](CC)CO [Ethambutol, reference compound]",Effect on M. tuberculosis H37Rv,[3]; 5 μg/mL,Inhibition
"NNC(=O)c1ccncc1 [Isoniazid, reference compound]",Effect on M. tuberculosis H37Rv,[3]; 0.1 μg/mL,Inhibition
"CO[C@H]1/C=C/O[C@@]2(C)Oc3c(C)c(O)c4c(O)c(c(/C=N/N5CCN(C)CC5)c(O)c4c3C2=O)NC(=O)/C(C)=C\C=C\[C@H](C)[C@H](O)[C@@H](C)[C@@H](O)[C@@H](C)[C@H](OC(C)=O)[C@@H]1C [Rifampin, reference compound]",Effect on M. tuberculosis H37Rv,[3]; 1 μg/mL,Inhibition
"[H]/N=C(/N)N[C@H]1[C@H](O)[C@@H](O)[C@H](O[C@@H]2O[C@@H](C)[C@](O)(C=O)[C@H]2O[C@@H]2O[C@@H](CO)[C@H](O)[C@@H](O)[C@@H]2NC)[C@@H](N/C(N)=N\[H])[C@@H]1O [Streptomycin, reference compound]",Effect on M. tuberculosis H37Rv,[3]; 1 μg/mL,Inhibition
